Data from patent US20140343104A1, “OSTEOGENESIS PROMOTER AND USE THEREOF” (National University Corporation Nagoya University, priority 2011, published 2014).

Tests used:
[1] = tested on: P1 promoter region of the human Runx2 gene; assay: RUNX2 P1 promoter luciferase reporter assay in BMP-2-induced C3H10T1/2 stable expression strain (primary, secondary, tertiary screening); format: cell-based; details: five times of screening (N=6/time); average of 5 times or even at once
From the text: Existing drugs which increase the promoter activity of the transcription factor Runx2 were exhaustively searched by luciferase assay. Firstly, the P1 promoter region of the human Runx2 gene was inserted into the multiple cloning site of the pGL4 luciferase reporter vector (Promega K.K.) (pGL4.10 vector). The pGL4.10 vector was transfected into the undifferentiated mouse mesenchymal cell line C3H10T1/2, and selectively cultured on a G418-containing medium, thereby establishing the stable expression strain. The cells were seeded on a 96-well (day 1), and human BMP-2 was added to each well on day 2, thereby inducing differentiation into osteoblasts. On the following day, the test compounds (10 μM) composing Prestwick Chemical Library (registered trademark) (Prestwick Chemical Ltd.) were added, and the cells were collected 24 hours after, and subjected to luciferase assay.
In addition to the compounds which made the reporter activity of luciferase (average of 5 times) 1.5 times that of the control, those made the activity 1.5 times than that of the control even at once were selected.

Runx2 gene [2] = assay: Runx2 gene expression by quantitative PCR in HOS cells; format: cell-based, human; details: PPI cultured for 24 hours, FIG. 1
Method: (§1) Human osteogenic sarcoma cells (HOSs) and the C3H10T1/2 cells were used in the experiment. Firstly, the cells (HOS or C3H10T1/2) were seeded on a 12-well plate (day 1). When the C3H10T1/2 cells were used, the human BMP-2 was added to each well on the following day. On day 3, PPI (rabeprazole or lansoprazole) was added and cultured for 24 hours, and the cells were collected. Total RNAs were prepared from the collected cells, and the expression of the Runx2 gene was analyzed by the quantitative PCR method.

Runx2 gene [3] = assay: Runx2 gene expression in human bone marrow mesenchymal stem cells; format: cell-based; details: PPI-containing bone-inducing media, P0, P1, P2, FIG. 10
Method: On the other hand, the human bone marrow mesenchymal stem cells (POIETICS (registered trademark), Lonza Ltd.) were subjected to primary culture (P0) and subcultivation (P1, P2) in the PPI-containing bone-inducing media (culture media containing PPI, dexamethasone, β-glycerophosphoric acid, and ascorbic acid). The bone-inducing medium was replaced every three days. The cells were collected when each of P0, P1, and P2 reached confluent, and the expression of the Runx2 gene was analyzed in the same manner as in 4-1.

Runx2 gene [4] = assay: Runx2 gene expression in rat cultured bone marrow mesenchymal cells; format: cell-based; details: bone-inducing media, P1, P2, P3, 24 hours after the addition of PPI, FIG. 9
Method: Mesenchymal cells were prepared from a rat bone marrow solution, and cultured (cultured bone marrow mesenchymal cells). Subsequently, the cells were subcultivated (P1, P2, and P3) in bone-inducing media (dexamethasone, β-glycerophosphoric acid, and ascorbic acid were added the culture media). PPI was added when each of the P1, P2, and P3 reached confluent. The cells were collected 24 hours after the addition of PPI, and the expression of the Runx2 gene was analyzed in the same manner as in 4-1.

rat femur defect model = assay: rat femur defect model, soft X-ray; format: in vivo; details: SD rat femur 3 mm defect, ad libitum oral administration
From the text: The left hind femur of an SD rat (male, 9 weeks old) was exposed by anterolateral approach, and an external fixator was installed. The diaphysis was cut by an oscillating saw, (defect amount 3 mm), and the bone was elongated in a single stage, and used as a bone defect model (defect group N=6, control group N=6). Lansoprazole was given to the bone defect model by ad libitum oral administration (about 10 to 20 times the usual human dose), and the bone defect part was photographed periodically by soft X-ray. In addition, the body weight and drinking water amount were periodically measured.

[5] = tested on: alkaline phosphatase (ALP) activity; assay: ALP activity by ELISA in HOS cells; format: cell-based, human; details: day 6 after the addition of PPI, FIG. 7
Method: as §1
(§2) Using the HOS cells and the C3H10T1/2 cells cultured in the same manner as in 4-1, and the expression level of the Runx2 protein and the ALP activity which is the index of bone differentiation were evaluated over time. The expression level of the Runx2 protein was evaluated by the Western blot test, and the ALP activity was measured by the ELISA method.

Runx2 protein [6] = assay: Runx2 protein expression by Western blot in BMP-2-induced C3H10T1/2 cells; format: cell-based, mouse; details: C3H10T1/2 cells differentiated by BMP-2; 48 hours and 78 hours after the addition of PPI; relative to Gapdh; FIGS. 5 and 6
Method: as §1, §2

[7] = tested on: alkaline phosphatase (ALP) activity; assay: ALP activity by ELISA in BMP-2-induced C3H10T1/2 cells; format: cell-based, mouse; details: day 5 after the addition of PPI, FIG. 8
Method: as §1, §2

Runx2 gene [8] = assay: Runx2 gene expression by quantitative PCR in BMP-2-induced C3H10T1/2 cells; format: cell-based, mouse; details: C3H10T1/2 cells differentiated by BMP-2; PPI cultured for 24 hours; FIG. 2
Method: as §1

[9] = tested on: P1 promoter region of the human Runx2 gene; assay: RUNX2 P1 promoter luciferase reporter assay in BMP-2-induced C3H10T1/2 stable expression strain (primary, secondary, tertiary screening); format: cell-based; details: three times of screening (N=6/time) at 8 levels of concentration
Runx2 protein [10] = assay: Runx2 protein expression by Western blot in HOS cells; format: cell-based, human; details: 48 hours and 78 hours after the addition of PPI, relative to Gapdh, FIGS. 3 and 4
Method: as §1, §2

luciferase protein = assay: double luciferase assay, pGL4.10 basic vector and phRL vector cotransfected into C3H10T1/2 cells; format: cell-based; details: pGL4.10 [luc2/SV40] basic vector and phRL [hRluc/TK] vector
Method: In order to exclude the possibility of the potential agent to increase the enzymatic activity of luciferase protein, the pGL4. 10 basic vector (pGL4.10 [luc2/SV40] basic vector) and phRLvector (phRL [hRluc/TK] vector) were cotransfected into the C3H10T1/2 cells, the potential agents were individually added, and double luciferase assay was performed.

| Compound | secondary screening: reporter activity of luciferase 1.5 times that of the control [1] | tertiary screening: concentration dependency of the promotion of RUNX2 promoter activity [9] | specificity of RUNX2 promoter promotion versus increase of luciferase activity (luciferase protein) | other results |
| --- | --- | --- | --- | --- |
| CCCSc1ccc2nc(NC(=O)OC)[nH]c2c1 [albendazole, methyl n-(6-propylsulfanyl-1H-benzimidazol-2-yl) carbamate] | selected | – | – | – |
| O=C(O)CCNC(=O)c1ccc(/N=N/c2ccc(O)c(C(=O)O)c2)cc1 [balsalazide sodium, disodium (3Z)-3-[[4-(2-carboxylatoethylcarbamoyl)phenyl]hydrazinylidene]-6-oxocyclohexa-1,4-diene-1-carboxylate dehydrate] | selected | – | – | – |
| CC(C(=O)O)c1ccc(N2Cc3ccccc3C2=O)cc1 (stereo not shown) [indoprofen, 2-[4-(3-oxo-1H-isoindol-2-yl)phenyl]propanoic acid] | selected | – | – | – |
| Cc1c(OCC(F)(F)F)ccnc1C[S+]([O-])c1nc2ccccc2[nH]1 (stereo not shown) [lansoprazole, 2-[[3-methyl-4-(2,2,2-trifluoroethoxy)pyridin-2-yl]methylsulfinyl]-1H-benzimidazole] | selected | concentration dependency | specifically promote the RUNX2 promoter activity | induction of expression of the Runx2 gene (Runx2 gene [2]): concentration-dependent activity of inducing the expression of the Runx2 gene; induction of the expression of the Runx2 gene (Runx2 gene [3]): expression inducing effect; induction of the expression of the Runx2 gene (Runx2 gene [4]): expression inducing effect; osteogenesis promoting effect (rat femur defect model): marked osteogenesis promoting effect; animals showing good osteogenesis (bone adhesion on soft X-ray) (rat femur defect model; about 10 to 20 times the usual human dose, 12 weeks, N=6): 3/6; ALP activity [5]: increase effect; Runx2 protein expression level (Runx2 protein [6]): expression inducing effect; ALP activity [7]: increase effect; induction of expression of the Runx2 gene (Runx2 gene [8]): concentration-dependent activity of inducing the expression of the Runx2 gene; Runx2 protein expression level (Runx2 protein [10]): expression inducing effect |
| Cc1oncc1C(=O)Nc1ccc(C(F)(F)F)cc1 [leflunomide, 5-methyl-N-[4-(trifluoromethyl)phenyl]-1,2-oxazole-4-carboxamide] | selected | concentration dependency | specifically promote the RUNX2 promoter activity | – |
| O=c1cc(-c2ccc(O)c(O)c2)oc2cc(O)cc(O)c12 [luteolin, 2-(3,4-dihydroxyphenyl)-5,7-dihydroxychromen-4-one] | selected | – | – | – |
| COC(=O)Nc1nc2ccc(SC(C)C)cc2[nH]1 [methiazole, methyl n-(6-propan-2-ylsulfanyl-1H-benzimidazol-2-yl) carbamate] | selected | – | – | – |
| COc1ccc2cc(CCC(C)=O)ccc2c1 [nabumetone, 4-(6-methoxynaphthalen-2-yl)butan-2-one] | selected | concentration dependency | specifically promote the RUNX2 promoter activity | – |
| Cl.Nc1ccc(N=Nc2ccccc2)c(N)n1 [phenazopyridine hydrochloride, 3-phenyldiazenylpyridine-2,6-diamine hydrochloride] | selected | – | – | – |
| COCCCOc1ccnc(C[S+]([O-])c2nc3ccccc3[nH]2)c1C (stereo not shown) [rabeprazole, 2-[[4-(3-methoxypropoxy)-3-methylpyridin-2-yl]methylsulfinyl]-1H-benzimidazole] | selected | concentration dependency | specifically promote the RUNX2 promoter activity | induction of expression of the Runx2 gene (Runx2 gene [2]): concentration-dependent activity of inducing the expression of the Runx2 gene; induction of the expression of the Runx2 gene (Runx2 gene [3]): expression inducing effect; induction of the expression of the Runx2 gene (Runx2 gene [4]): expression inducing effect; ALP activity [5]: increase effect; Runx2 protein expression level (Runx2 protein [6]): expression inducing effect; ALP activity [7]: increase effect; induction of expression of the Runx2 gene (Runx2 gene [8]): concentration-dependent activity of inducing the expression of the Runx2 gene; Runx2 protein expression level (Runx2 protein [10]): expression inducing effect |
| c1ccc2[nH]c(-c3cscn3)nc2c1 [tiabendazole, 4-(1H-benzimidazol-2-yl)-1,3-thiazole] | selected | – | – | – |
| CC(C(=O)O)c1ccc(C(=O)c2ccccc2)s1 (stereo not shown) [tiaprofenic acid, 2-(5-benzoylthiophen-2-yl)propanoic acid] | selected | concentration dependency | specifically promote the RUNX2 promoter activity | – |
| COc1ccc(/C=C/C(=O)Nc2ccccc2C(=O)O)cc1OC [tranilast, 2-[[(E)-3-(3,4-dimethoxyphenyl)prop-2-enoyl]amino]benzoic acid] | selected | concentration dependency | slightly increase the luciferase activity | – |
